In US12590066B2, “Fused-heterocyclyl-carbonohydrazonoyl dicyanide compounds and use thereof” (KOREA INSTITUTE OF SCIENCE AND TECHNOLOGY, priority 2020, dated 2026):

Legend:
CYP1A2 = target: T1, CYP1A2 (Homo sapiens, UniProt P05177); test: Inhibitory effect on CYP coenzyme activity, human liver microsomes; format: in vitro ADME; conditions: 10 μM compound, human liver microsomes 0.25 mg/mL, substrate phenacetin, 15 minutes
T1 construct: human liver microsomes (0.25 mg/mL); from tissue; host or cells: human liver microsomes
T1 sequence (P05177 1-516): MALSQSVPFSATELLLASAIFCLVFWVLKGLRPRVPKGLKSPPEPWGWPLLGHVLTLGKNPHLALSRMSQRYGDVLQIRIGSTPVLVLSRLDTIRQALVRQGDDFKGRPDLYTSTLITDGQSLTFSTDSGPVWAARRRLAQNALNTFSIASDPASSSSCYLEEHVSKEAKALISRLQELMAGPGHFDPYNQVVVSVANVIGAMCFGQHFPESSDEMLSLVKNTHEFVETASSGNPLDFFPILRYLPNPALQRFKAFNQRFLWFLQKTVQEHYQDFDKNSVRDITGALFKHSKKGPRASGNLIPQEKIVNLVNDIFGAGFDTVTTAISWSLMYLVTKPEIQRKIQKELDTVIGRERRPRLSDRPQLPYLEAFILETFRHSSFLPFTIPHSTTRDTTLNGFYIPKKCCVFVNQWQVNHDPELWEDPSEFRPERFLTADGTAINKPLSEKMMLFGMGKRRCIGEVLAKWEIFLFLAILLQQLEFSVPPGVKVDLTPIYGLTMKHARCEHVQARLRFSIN
Protocol: (§1) The inhibitory effects of the compounds prepared according to Examples 1 to 57 on CYP coenzyme activity were identified. Specifically, human liver microsomes (0.25 mg/mL), a 0.1 M phosphate buffer solution (pH 7.4), a substrate drug cocktail of five types of drug metabolism enzymes (50 μM phenacetin, 10 μM diclofenac, 100 μM S-mephenytoin, 5 μM dextromethorphan, and 2.5 μM midazolam), and the compound at a concentration of 0 μM or 10 μM were mixed and pre-cultured at 37° C. for 5 minutes, and then further cultured at 37° C. for 15 minutes together with an NADPH generation system solution added thereto. Thereafter, the reaction was terminated by adding an acetonitrile solution containing an internal standard material (terfenadine) and centrifuged for 5 minutes (14,000 rpm, 4° C.), and then a supernatant was injected into an LC-MS/MS system for simultaneous analysis of metabolites of the substrate drugs to thereby evaluate the inhibitory effects on drug metabolism.
(§2) Metabolites of each CYP coenzyme indicator drug generated through the reaction were analyzed using the Shimadzu Nexera XR system and TSQ Vantage (Thermo). In an HPLC column, Kinetex C18 (2.1 mm×100 mm, 2.6 μm, particle size; Phenomenex, USA) was used, and mobile phases were (A) distilled water containing 0.1% formic acid and (B) acetonitrile containing 0.1% formic acid, and a gradient program shown in Table 3 was applied thereto.
(§3) The generated metabolites were quantified using a multiple reaction monitoring (MRM) quantification mode, and Xcalibur (version 1.6.1) was used for data analysis. In order to express inhibitory effects of the novel compound prepared according to the examples of the present invention on CYP coenzyme activity, CYP coenzyme activities (%) with respect to the control group not treated with the compound are shown in Table 4 below.

CYP2C19 = target: T2, CYP2C19 (Homo sapiens, UniProt P33261); test: as above; format: in vitro ADME; conditions: 10 μM compound, human liver microsomes 0.25 mg/mL, substrate S-mephenytoin, 15 minutes
T2 construct: human liver microsomes (0.25 mg/mL); from tissue; host or cells: human liver microsomes
Protocol: as §1, §2, §3

CYP3A4 = target: T3, CYP3A4 (Homo sapiens, UniProt P08684); test: as above; format: in vitro ADME; conditions: 10 μM compound, human liver microsomes 0.25 mg/mL, substrate midazolam, 15 minutes
T3 construct: human liver microsomes (0.25 mg/mL); from tissue; host or cells: human liver microsomes
Protocol: as §1, §2, §3

CYP2D6 = target: T4, CYP2D6 (Homo sapiens, UniProt P10635); test: as above; format: in vitro ADME; conditions: 10 μM compound, human liver microsomes 0.25 mg/mL, substrate dextromethorphan, 15 minutes
T4 construct: human liver microsomes (0.25 mg/mL); from tissue; host or cells: human liver microsomes
Protocol: as §1, §2, §3

CYP2C9 = target: T5, CYP2C9 (Homo sapiens, UniProt P11712); test: as above; format: in vitro ADME; conditions: 10 μM compound, human liver microsomes 0.25 mg/mL, substrate diclofenac, 15 minutes
T5 construct: human liver microsomes (0.25 mg/mL); from tissue; host or cells: human liver microsomes
Protocol: as §1, §2, §3

tau protein = target: T6, tau protein (Homo sapiens, UniProt P10636); test: Tau-BiFC cell model, inhibition of Forskolin-induced tau protein aggregation; format: cell-based; conditions: Forskolin 30 μM, 48 hours; for Tau BiFC in cells Response (% @10 μM): 10 μM compound, Forskolin-only group = 100% tau protein-aggregated state; for IC50: tau-BiFC cells
T6 construct: BiFC fluorescent-protein fragments (type and halves not specified); expressed in transfected cells
Protocol: In order to select novel tau protein aggregation-inhibiting substances, tau-BiFC cell model, in which formation of tau oligomers in living cells is easily observed, was used. Tau-BiFC cells were aliquoted into a 384-well plate. On the next day, the cells were treated with each of the compounds prepared according to Examples 1 to 57 at concentrations of 1 μM, 3 μM, and 10 μM, together with Forskolin (at a treatment concentration of 30 μM), which is a compound inducing tau protein aggregation by activating tau phosphorylase PKA. After 48 hours, nuclei in the cells were stained using Hoechst (at a treatment concentration of 2 μg/mL), and BiFC fluorescence intensity was automatically measured using Operetta (PerkinElmer) to count stained nuclei in each well out of the entire well plate. The group treated only with Forskolin, which induces tau protein aggregation, was set to a reference point of a 100% tau protein-aggregated state, and the effects of the compounds were confirmed using the equation “BiFC fluorescence intensity due to compound synthesized according to embodiment of present invention/(fluorescence intensity of control group treated only with Forskolin inducing tau protein aggregation−fluorescence intensity of untreated control group)×100”. Furthermore, the degree of cytotoxicity induced by the newly synthesized compound was also measured based on the 100% cell viability of the group treated only with Forskolin as a reference, and the cytotoxicity value of each compound was calculated using the equation “(number of stained nuclei in group treated with compound/number of stained nuclei in group treated with Forskolin)×100”. Based on the treatment results, substances inhibiting intracellular tau protein aggregation were selected from a series of candidate groups showing a tau protein aggregation inhibition rate of 70% or more and cell viability of 100% at a compound treatment concentration of 10 μM or more.
In order to evaluate dose-dependent tau protein aggregation inhibition effects of the compounds selected according to Experimental Example 1 on tau protein aggregation, tau-BiFC cells were treated with the selected compounds at concentrations of 0.03 μM, […], 0.3 μM, 1 μM, 3 μM, 10 μM, and 30 μM, respectively, together with Forskolin (at a treatment concentration of 30 μM), which is a tau protein aggregation-inducing substance. After 48 hours, tau protein aggregation reaction and degrees of cytotoxicity were analyzed by observing images of the cells. IC50 and toxicity of the compounds were analyzed by way of nonlinear regression analysis of prism software (Graph Pad).

T6 sequence (P10636 1-441 isoform P10636-8): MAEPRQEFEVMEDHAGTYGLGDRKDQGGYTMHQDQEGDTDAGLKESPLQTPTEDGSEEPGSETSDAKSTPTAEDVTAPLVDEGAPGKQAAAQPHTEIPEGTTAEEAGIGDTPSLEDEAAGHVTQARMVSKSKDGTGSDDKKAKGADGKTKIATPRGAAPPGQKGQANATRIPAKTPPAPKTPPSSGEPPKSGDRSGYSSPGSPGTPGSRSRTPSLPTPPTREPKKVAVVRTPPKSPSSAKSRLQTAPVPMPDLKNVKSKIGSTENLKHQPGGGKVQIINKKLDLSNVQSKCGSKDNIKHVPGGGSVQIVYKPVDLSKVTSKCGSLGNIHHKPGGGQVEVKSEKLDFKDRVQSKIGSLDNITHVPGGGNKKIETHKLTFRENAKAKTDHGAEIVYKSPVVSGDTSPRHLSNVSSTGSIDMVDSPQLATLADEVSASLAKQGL
T5 sequence (P11712 whole entry): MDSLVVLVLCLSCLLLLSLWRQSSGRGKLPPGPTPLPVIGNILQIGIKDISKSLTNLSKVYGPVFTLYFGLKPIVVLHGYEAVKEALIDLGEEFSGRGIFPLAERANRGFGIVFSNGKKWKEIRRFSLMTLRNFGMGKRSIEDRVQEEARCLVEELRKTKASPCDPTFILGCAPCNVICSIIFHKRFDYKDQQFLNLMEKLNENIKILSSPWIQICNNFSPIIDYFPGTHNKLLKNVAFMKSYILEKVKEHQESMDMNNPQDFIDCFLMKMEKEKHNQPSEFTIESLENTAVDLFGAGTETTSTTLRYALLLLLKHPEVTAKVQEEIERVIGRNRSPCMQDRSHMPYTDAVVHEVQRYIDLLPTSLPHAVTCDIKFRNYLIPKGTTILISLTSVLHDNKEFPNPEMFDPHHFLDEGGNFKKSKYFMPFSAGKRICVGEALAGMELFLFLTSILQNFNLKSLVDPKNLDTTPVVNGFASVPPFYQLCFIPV
T2 sequence (P33261 whole entry): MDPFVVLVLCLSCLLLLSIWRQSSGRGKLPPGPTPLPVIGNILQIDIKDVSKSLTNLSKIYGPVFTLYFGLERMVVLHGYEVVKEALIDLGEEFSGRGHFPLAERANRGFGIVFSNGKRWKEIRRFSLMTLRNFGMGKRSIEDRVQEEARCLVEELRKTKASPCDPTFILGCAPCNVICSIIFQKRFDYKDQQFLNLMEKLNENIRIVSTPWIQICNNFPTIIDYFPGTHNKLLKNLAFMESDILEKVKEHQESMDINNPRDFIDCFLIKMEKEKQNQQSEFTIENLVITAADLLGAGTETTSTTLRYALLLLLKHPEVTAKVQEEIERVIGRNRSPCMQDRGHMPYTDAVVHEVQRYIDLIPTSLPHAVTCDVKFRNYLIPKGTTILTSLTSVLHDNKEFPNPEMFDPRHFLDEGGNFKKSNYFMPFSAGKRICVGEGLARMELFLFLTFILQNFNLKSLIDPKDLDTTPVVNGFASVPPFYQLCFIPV
T4 sequence (P10635 whole entry): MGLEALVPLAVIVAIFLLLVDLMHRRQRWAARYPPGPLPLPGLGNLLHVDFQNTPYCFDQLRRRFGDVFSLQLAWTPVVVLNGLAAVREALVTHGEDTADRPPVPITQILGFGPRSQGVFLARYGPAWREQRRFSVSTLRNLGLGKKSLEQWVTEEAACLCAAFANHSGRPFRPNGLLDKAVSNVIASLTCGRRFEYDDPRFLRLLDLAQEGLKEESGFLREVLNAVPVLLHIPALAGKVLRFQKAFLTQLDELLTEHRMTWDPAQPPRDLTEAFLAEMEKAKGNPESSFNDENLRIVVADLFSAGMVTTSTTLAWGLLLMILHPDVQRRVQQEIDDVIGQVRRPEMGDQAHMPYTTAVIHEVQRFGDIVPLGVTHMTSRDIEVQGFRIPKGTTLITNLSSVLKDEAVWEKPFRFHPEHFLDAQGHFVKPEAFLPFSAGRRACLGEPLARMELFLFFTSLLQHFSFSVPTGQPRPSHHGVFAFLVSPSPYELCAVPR
T3 sequence (P08684 whole entry): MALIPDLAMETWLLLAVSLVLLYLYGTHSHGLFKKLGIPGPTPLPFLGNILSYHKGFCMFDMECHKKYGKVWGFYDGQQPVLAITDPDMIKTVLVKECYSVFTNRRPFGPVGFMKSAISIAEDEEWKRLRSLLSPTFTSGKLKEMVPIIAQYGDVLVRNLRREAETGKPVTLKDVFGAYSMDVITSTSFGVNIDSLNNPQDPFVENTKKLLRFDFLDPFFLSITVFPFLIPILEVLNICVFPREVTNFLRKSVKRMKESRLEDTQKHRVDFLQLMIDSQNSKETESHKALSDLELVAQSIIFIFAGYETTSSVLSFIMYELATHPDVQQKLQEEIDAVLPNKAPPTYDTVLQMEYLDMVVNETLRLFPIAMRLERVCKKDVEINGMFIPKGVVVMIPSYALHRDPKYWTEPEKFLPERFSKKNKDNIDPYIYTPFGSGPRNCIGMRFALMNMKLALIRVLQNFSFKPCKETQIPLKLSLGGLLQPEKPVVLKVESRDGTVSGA

| Compound | CYP1A2 coenzyme activity (%) with respect to control group not treated (CYP1A2) | CYP2C19 coenzyme activity (%) with respect to control group not treated (CYP2C19) | CYP3A4 coenzyme activity (%) with respect to control group not treated (CYP3A4) | CYP2D6 coenzyme activity (%) with respect to control group not treated (CYP2D6) | CYP2C9 coenzyme activity (%) with respect to control group not treated (CYP2C9) | Tau BiFC in cells Response (% @10 μM) (tau protein) | IC50 (tau protein) |
| --- | --- | --- | --- | --- | --- | --- | --- |
| N#CC(C#N)=NNc1ccc2c(c1)n(C(F)F)c(=O)n2C(F)F [Compound 24, (1,3-bis(difluoromethyl)-2-oxo-2,3-dihydro-1H-benzo[d]imidazol-5-yl)carbonohydrazonoyl dicyanide] | 32.8% | 73.9% | 78.1% | 82.5% | 40.6% | 0% | 200 nM |
| CC(C)n1c(=O)n(C)c2ccc(NN=C(C#N)C#N)cc21 [Compound 36, (3-isopropyl-1-methyl-2-oxo-2,3-dihydro-1H-benzo[d]imidazol-5-yl)carbonohydrazonoyl dicyanide] | 93.7% | 89.5% | 95.8% | >100% | 36.6% | −57% | 20 nM |
| CC(C)n1c(=O)n(C2CC2)c2ncc(NN=C(C#N)C#N)cc21 [Compound 53, (3-cyclopropyl-1-isopropyl-2-oxo-2,3-dihydro-1H-imidazo[4,5-b]pyridin-6-yl)carbonohydrazonoyl dicyanide] | >100% | >100% | 97.8% | >100% | 75.3% | −39% | 160 nM |
| CC(C)n1c(=O)n(C(C)C)c2ncc(NN=C(C#N)C#N)cc21 [Compound 34, (1,3-diisopropyl-2-oxo-2,3-dihydro-1H-imidazo[4,5-b]pyridin-6-yl)carbonohydrazonoyl dicyanide] | >100% | 88.8% | 90.2% | 99.1% | 41.9% | −45% | 50 nM |
| Cn1c(=O)[nH]c2cc(NN=C(C#N)C#N)ccc21 [Compound 17, (1-methyl-2-oxo-2,3-dihydro-1H-benzo[d]imidazol-5-yl)carbonohydrazonoyl dicyanide] | 32.1% | 80.4% | 89% | 87.1% | 81.2% | 0% | 1200 nM |
| CC(C)n1ccc2c(NN=C(C#N)C#N)cccc2c1=O [Compound 6, (2-isopropyl-1-oxo-1,2-dihydroisoquinolin-5-yl)carbonohydrazonoyl dicyanide] | 68.3% | 37.8% | 81.4% | 85.4% | 8.7% | 0% | 700 nM |
| CC(C)n1c(=O)n(C2CC2)c2ccc(NN=C(C#N)C#N)cc21 [Compound 42, (1-cyclopropyl-3-isopropyl-2-oxo-2,3-dihydro-1H-benzo[d]imidazol-5-yl)carbonohydrazonoyl dicyanide] | 91.9% | >100% | 93.5% | >100% | 59.6% | −52% | 80 nM |
| N#CC(C#N)=NNc1cccc2c(=O)[nH]ccc12 [Compound 4, (1-oxo-1,2-dihydroisoquinolin-5-yl)carbonohydrazonoyl dicyanide] | 85.3% | 89.7% | 81.6% | 91.1% | 59.3% | 0% | 1800 nM |
| N#CC(C#N)=NNc1ccc2c(c1)sc(=O)n2C(F)F [Compound 19, (3-(difluoromethyl)-2-oxo-2,3-dihydrobenzo[d]thiazol-6-yl)carbonohydrazonoyl dicyanide] | 52.5% | 75.7% | 81.8% | 40.5% | 23.3% | 0% | 100 nM |
| CC(C)n1c(=O)n(C(F)F)c2cc(NN=C(C#N)C#N)ccc21 [Compound 43, (3-(difluoromethyl)-1-isopropyl-2-oxo-2,3-dihydro-1H-benzo[d]imidazol-5-yl)carbonohydrazonoyl dicyanide] | 61.7% | 60.2% | 72.6% | 82.2% | 14.1% | −49% | 10 nM |
